{"source": "patent US20230373940A1", "about": "“CARBOXYLIC DIARYLTHIAZEPINEAMINES AND USES THEREOF” (Kures, Inc., priority 2020, published 2023)", "key": {"[1]": {"target": "T1, human mu opioid receptor (MOR) (Homo sapiens, UniProt P35372)", "T1 construct": "expressed in transfected cells; host or cells: HEK-293T", "T1 sequence (P35372 whole entry)": "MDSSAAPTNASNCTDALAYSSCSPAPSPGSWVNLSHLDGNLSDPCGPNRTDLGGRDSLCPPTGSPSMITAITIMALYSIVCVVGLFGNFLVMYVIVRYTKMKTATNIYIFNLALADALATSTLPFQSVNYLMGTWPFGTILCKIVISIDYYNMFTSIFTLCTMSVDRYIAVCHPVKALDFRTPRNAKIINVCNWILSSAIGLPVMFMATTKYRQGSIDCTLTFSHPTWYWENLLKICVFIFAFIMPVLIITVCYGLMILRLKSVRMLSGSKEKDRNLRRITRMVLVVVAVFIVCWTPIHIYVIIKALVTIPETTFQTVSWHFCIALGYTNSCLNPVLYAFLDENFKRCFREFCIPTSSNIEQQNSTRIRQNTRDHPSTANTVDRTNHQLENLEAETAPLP", "assay": "BRET assay measuring G protein activation, agonist activity at human MOR (transfected HEK-293T cells)", "assay_type": "cell-based", "settings": "for MOR potency relative to analogs lacking substitution at position 2: dihalo-substituted core", "method": "(§1) The diarylthiazepinamine carboxylic acids (9) were tested for agonist activity at the human mu opioid receptor (MOR) and delta opioid receptor (DOR) using bioluminescence resonance energy transfer (BRET) assays measuring G protein activation as previously described (Table 1) (Rives, M.-L. et al. 2012; Negri, A. et al. 2013).\n(§2) Transfection. Human MOR cDNA was transfected alongside […] with RLuc8 inserted at position 91 (GαoB-RLuc8), Gβ1 (β1), and Gγ2 fused to the full-length mVenus at its N terminus (mVenus-γ2) into HEK-293T cells (5×10^6 cells/plate) in 10-cm dishes using PEI (Polysciences Inc.; Warrington, PA) in a 1:1 ratio diluted in Opti-MEM (Life Technologies Corp.; Grand Island, NY) to assay for G protein activation as described previously (Rives, M.-L. et al. 2012; Negri, A. et al. 2013). Cells were maintained in Dulbecco's Modified Eagle Medium (high glucose #11965; Life Technologies) supplemented with 10% FBS (Premium Select, Atlanta Biologicals; Atlanta, GA) and 100 U/mL penicillin and 100 μg/mL streptomycin (#15140, Life Technologies). After 24 hours the media was changed, and the experiment was performed 24 hours later (48 hours after transfection).\n(§3) BRET. Transfected cells were dissociated and re-suspended in phosphate-buffered saline (PBS). Approximately 200,000 cells/well were added to a black-framed, white well 96-well plate (#60050; Perkin Elmer; Waltham, MA). The microplate was centrifuged and the cells were re-suspended in PBS. Then 5 μM of the luciferase substrate coelenterazine H was added to each well for 5 minutes. Following coelenterazine H addition, ligands were added and the BRET signal was measured at 5 minutes on a PHERAstar FS plate reader. Quantification of the BRET signal required calculating the ratio of the light emitted by the energy acceptor, mVenus (510-540 nm), over the light emitted by the energy donor, RLuc8 (485 nm). […] Dose response curves were fit using a three-parameter logistics equation in GraphPad Prism 6.\nThe additional diarylthiazepinamine carboxylic acids (9i, 9j, 9k, and 91) were tested for agonist activity at the human mu opioid receptor (MOR) using bioluminescence resonance energy transfer (BRET) assays measuring G protein activation (Table 2) as previously described (Rives, M.-L. et al. 2012; Negri, A. et al. 2013; Example 2 of the present application)."}, "[2]": {"target": "T2, human delta opioid receptor (DOR) (Homo sapiens, UniProt P41143)", "T2 construct": "expressed in transfected cells", "T2 sequence (P41143 whole entry)": "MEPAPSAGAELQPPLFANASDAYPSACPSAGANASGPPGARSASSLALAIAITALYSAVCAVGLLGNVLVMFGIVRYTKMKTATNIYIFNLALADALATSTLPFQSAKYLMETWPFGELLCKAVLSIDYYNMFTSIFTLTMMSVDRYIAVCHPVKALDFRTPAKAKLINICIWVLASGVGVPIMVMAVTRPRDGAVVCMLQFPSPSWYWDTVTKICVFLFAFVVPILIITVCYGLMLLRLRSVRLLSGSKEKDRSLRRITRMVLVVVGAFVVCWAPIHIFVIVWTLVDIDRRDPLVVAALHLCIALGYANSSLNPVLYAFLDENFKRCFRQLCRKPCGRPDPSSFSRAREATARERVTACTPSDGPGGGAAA", "assay": "BRET assay measuring G protein activation, agonist activity at human DOR", "assay_type": "cell-based", "method": "as §1, §2, §3"}, "[3]": {"settings": "for Solubility, 100 mM HCl, pH 1 (mg/mL): pH 1, 25° C.", "method": "Solubility Determination. Test compounds (4 mg) were added to 200 μL of one of the tested aqueous solutions (hereinafter—buffer): 100 mM aqueous HCl (pH 1) or 100 mM Na-phosphate buffer (pH 7). The obtained suspensions/solutions with the theoretical concentration of 20 mg/mL were further allowed to equilibrate at 25° C. on a thermostatic orbital shaker for 24 hours and then centrifuged at 6000 rpm for 4 minutes and filtered through HTS filter plates using a vacuum manifold. In parallel, compound dilutions in 50% acetonitrile/HCl and 30% acetonitrile/Na-phosphate buffer mixes were prepared to theoretical concentrations of 0 mg/mL (blank), 0.1 mg/mL, 0.2 mg/mL, and 0.4 mg/mL in duplicates to generate calibration curves falling within the optimum UV absorption range. The filtrates of test compounds were diluted 100-fold with acetonitrile-buffer mixtures before measuring. The filtered supernatant test samples were transferred to 96-well plates and measured for absorbance in the 200-550 nm range with 5 nm step increment. The concentrations of compounds in supernatants were calculated using the measured absorbance and the previously determined calibration curve. Proper absorbance wavelengths for calculations were selected for each compound manually based on absorbance maxima (absolute absorbance unit values for the minimum and maximum concentration points within 0-2.5 OD range)."}, "male C57BL/6 mice": {"system": "male C57BL/6 mice", "assay": "Analgesic activity in hot plate assay", "assay_type": "in vivo, mouse", "settings": "for ED50: Mus musculus, sc, hot plate 55° C., male C57BL/6 mice; for Analgesic activity in the mouse hot plate assay: much higher potency than tianeptine", "method": "Analgesic Activity in Hot Plate Assay. Male C57BL/6 mice were timed for latency to jump on a hot-plate apparatus set to 55° C., using a 30 s cutoff to prevent tissue damage. Following a baseline test, animals were injected subcutaneously (s.c.) with escalating doses of drug and tested at […] (time of maximal effect). Dose-response curves were fit via nonlinear regression using GraphPad Prism (La Jolla, CA)."}, "[4]": {"assay": "Solubility Determination (Method A), distilled water, stirred 24 h", "assay_type": "physicochemical", "method": "(§4) Solubility Determination (Method A). A quantity of the appropriate compound sufficient to saturate the resulting solution was added to distilled water (0.50 mL) and the mixture was stirred vigorously for 24 h at room temperature (20° C.). The mixture was then centrifuged for 3 min. at 21,000×g and the stir bar was carefully removed. The mixture was then centrifuged again for 5 min. at 21,000×g and the supernatant was carefully removed by syringe and passed through a […] syringe filter. An aliquot (300 μL) of the filtered supernatant was concentrated in vacuo and the mass of the residual solids determined in order to calculate the solubility."}, "[5]": {"assay": "Solubility Determination (Method B), distilled water, orbital shaker 2 h", "assay_type": "physicochemical", "settings": "neutral unbuffered water, vs iodotianeptine", "method": "as §4, with “B).” for “A).”, “agitated on an orbital shaker” for “was stirred vigorously”, “2” for “24”, “centrifuged” for “centrifuged for 3 min. at 21,000×g and the stir bar was carefully removed. The mixture was then centrifuged again”"}, "MOR": {"target": "MOR (Homo sapiens, UniProt P35372)", "sequence (P35372 whole entry)": "as the sequence (P35372 whole entry) above", "settings": "Gassaway, M. M. et al. 2014; cited from earlier work"}, "DOR": {"target": "DOR (Homo sapiens, UniProt P41143)", "sequence (P41143 whole entry)": "as the sequence (P41143 whole entry) above", "settings": "Gassaway, M. M. et al. 2014; cited from earlier work"}, "[6]": {"settings": "average of 2 independent trials"}}, "note": "Counter-ions that a name gives are not always drawn.", "data": [{"smiles": "CN1c2ccccc2C(NCCCCCCCC(=O)O)c2ccc(I)cc2S1(=O)=O", "note": "(racemic) [Compound 9e, 8-((3-Iodo-6-methyl-5,5-dioxido-6,11-dihydrodibenzo[c,f][1,2]thiazopin-11-yl)amino) octanoic acid hydrochloride salt]", "values": [{"measurement": "EC50", "setting": "[1]", "result": "0.0242 ± 0.011", "unit": "µM"}, {"measurement": "EC50", "setting": "[2]", "result": "0.724 ± 0.099", "unit": "µM"}]}, {"smiles": "CN1c2ccccc2C(NCCCCCCCCCC(=O)O)c2ccc(I)cc2S1(=O)=O", "note": "(racemic) [Compound 9g, 10-((3-Iodo-6-methyl-5,5-dioxido-6,11-dihydrodibenzo[c,f][1,2]thiazopin-11-yl)amino)decanoic acid hydrochloride salt]", "values": [{"measurement": "EC50", "setting": "[1]", "result": "0.0266 ± 0.0018", "unit": "µM"}, {"measurement": "EC50", "setting": "[2]", "result": "0.262 ± 0.025", "unit": "µM"}]}, {"smiles": "CN1c2ccccc2C(NCCCCCCC(=O)O)c2cc(F)c(Br)cc2S1(=O)=O.Cl", "note": "(stereo not drawn) [Compound 9b, 7-((3-Bromo-2-fluoro-6-methyl-5,5-dioxido-6,11-dihydrodibenzo[c,f][1,2]thiazopin-11-yl)amino) heptanoic acid hydrochloride salt]", "values": [{"measurement": "Solubility, 100 mM HCl, pH 1 (mg/mL)", "setting": "[3]; [6]", "result": 1.1, "unit": "mg/mL"}, {"measurement": "Solubility, 100 mM Na phosphate buffer, pH 7 (mg/mL)", "setting": "[3]; pH 7, 25° C., average of 2 independent trials", "result": 0.84, "unit": "mg/mL"}, {"measurement": "ED50", "setting": "male C57BL/6 mice", "result": 5.1, "unit": "mg/kg"}, {"measurement": "Analgesic activity in the mouse hot plate assay", "setting": "male C57BL/6 mice", "result": "potent analgesics"}, {"measurement": "MOR potency relative to analogs lacking substitution at position 2", "setting": "[1]", "result": "equipotent or more potent"}, {"measurement": "Fold more soluble than analogous monohalo counterpart", "setting": "[4]; neutral unbuffered water, vs bromotianeptine", "result": "2-3 fold"}, {"measurement": "Aqueous Solubility (mg/mL @ 20° C.)", "setting": "[4]; neutral water, room temperature (20° C.), Method A, average of 2 independent trials", "result": 9.8, "unit": "mg/mL"}]}, {"smiles": "CSc1ccc2c(c1)S(=O)(=O)N(C)c1ccccc1C2NCCCCCCC(=O)O", "note": "(stereo not drawn) [Compound 9c, 7-((6-Methyl-3-(methylthio)-5,5-dioxido-6,11-dihydrodibenzo[c,f][1,2]thiazopin-11-yl)amino)heptanoic acid]", "values": [{"measurement": "Human DOR agonist type (partial / full agonist)", "setting": "[2]", "result": "partial agonist"}, {"measurement": "DOR Emax relative to the control agonist DPDPE", "setting": "[2]; FIG. 1", "result": "lesser Emax than the control agonist DPDPE"}]}, {"smiles": "CN1c2ccccc2C(NCCCCCCC(=O)O)c2cc(Cl)c(Cl)cc2S1(=O)=O.Cl", "note": "(stereo not drawn) [Compound 9i, 7-((2,3-dichloro-6-methyl-5,5-dioxido-6,11-dihydrodibenzo[c,f][1,2]thiazopin-11-yl)amino) heptanoic acid hydrochloride salt]", "values": [{"measurement": "MOR potency relative to analogs lacking substitution at position 2", "setting": "[1]", "result": "equipotent or more potent"}]}, {"smiles": "CN1c2ccccc2C(NCCCCCCC(=O)O)c2cc(F)c(Cl)cc2S1(=O)=O.Cl", "note": "(stereo not drawn) [Compound 9j, 7-((3-chloro-2-fluoro-6-methyl-5,5-dioxido-6,11-dihydrodibenzo[c,f][1,2]thiazopin-11-yl)amino) heptanoic acid hydrochloride salt]", "values": [{"measurement": "Fold more soluble than monohalo counterpart at pH 1", "setting": "[3]; pH 1", "result": 8, "unit": "fold"}, {"measurement": "MOR potency relative to analogs lacking substitution at position 2", "setting": "[1]", "result": "equipotent or more potent"}]}, {"smiles": "CN1c2ccccc2C(NCCCCCCC(=O)O)c2cc(F)c(I)cc2S1(=O)=O.Cl", "note": "(stereo not drawn) [Compound 9k, 7-((2-fluoro-3-iodo-6-methyl-5,5-dioxido-6,11-dihydrodibenzo[c,f][1,2]thiazopin-11-yl)amino)heptanoic acid hydrochloride salt]", "values": [{"measurement": "ED50", "setting": "male C57BL/6 mice", "result": 1.7, "unit": "mg/kg"}, {"measurement": "Analgesic activity in the mouse hot plate assay", "setting": "male C57BL/6 mice", "result": "potent analgesics"}, {"measurement": "MOR potency relative to analogs lacking substitution at position 2", "setting": "[1]", "result": "equipotent or more potent"}, {"measurement": "Fold more soluble than analogous monohalo counterpart", "setting": "[5]", "result": "2-3 fold"}]}, {"smiles": "CN1c2ccccc2C(NCCCCC(=O)O)c2cc(F)c(Br)cc2S1(=O)=O.Cl", "note": "(stereo not drawn) [Compound 91, 5-((3-bromo-2-fluoro-6-methyl-5,5-dioxido-6,11-dihydrodibenzo[c,f][1,2]thiazepin-11-yl)amino) pentanoic acid hydrochloride salt]", "values": [{"measurement": "MOR potency relative to analogs lacking substitution at position 2", "setting": "[1]", "result": "equipotent or more potent"}]}, {"smiles": "CCOC(=O)CCCCCCNC1c2ccccc2N(C)S(=O)(=O)c2cc(SC)ccc21", "note": "(stereo not drawn) [Ester Analog of 9c, Ethyl 7-((6-methyl-3-(methylthio)-5,5-dioxido-6,11-dihydrodibenzo[c,f][1,2]thiazepin-11-yl)amino)heptanoate]", "values": [{"measurement": "Human DOR agonist type (partial / full agonist)", "setting": "[2]", "result": "partial agonist"}]}, {"smiles": "CN1c2ccccc2C(NCCCCCCC(=O)[O-])c2ccc(Cl)cc2S1(=O)=O.[Na+]", "note": "(stereo not drawn) [Tianeptine (Na salt), Tianeptine, reference compound]", "values": [{"measurement": "ED50", "setting": "male C57BL/6 mice", "result": 15, "unit": "mg/kg"}]}, {"smiles": "CN1c2ccccc2C(NCCCCCCC(=O)O)c2ccc(Cl)cc2S1(=O)=O", "note": "(stereo not drawn) [Tianeptine, tianeptine]", "values": [{"measurement": "Agonist activity at the MOR (reported)", "setting": "MOR", "result": "full agonist"}, {"measurement": "Agonist activity at the DOR (reported)", "setting": "DOR", "result": "low potency agonist activity"}]}, {"smiles": "CN1c2ccccc2C(NCCCCCCC(=O)O)c2ccc(Br)cc2S1(=O)=O.Cl", "note": "(stereo not drawn) [bromotianeptine, reference compound]", "values": [{"measurement": "Solubility, 100 mM HCl, pH 1 (mg/mL)", "setting": "[3]; [6]", "result": "<0.1", "unit": "mg/mL"}]}, {"smiles": "CN1c2ccccc2C(NCCCCCCC(=O)O)c2ccc(I)cc2S1(=O)=O.Cl", "note": "(stereo not drawn) [iodotianeptine, reference compound]", "values": [{"measurement": "Solubility, 100 mM HCl, pH 1 (mg/mL)", "setting": "[3]; [6]", "result": "<0.1", "unit": "mg/mL"}]}]}
